US7008636B2, “2,3,5-substituted biphenyls useful in the treatment of insulin resistance and hyperglycemia” (Wyeth, priority 1998, dated 2006)

Columns and labels:
[1] = molecular target: T1, recombinant, human protein tyrosine phosphatase (PTP) 1B (hPTP1B) (Homo sapiens, UniProt P18031); assay: Inhibition of tri-phosphorylated insulin receptor dodecaphosphopeptide dephosphorylation by hPTP1B; assay type: biochemical; conditions: 50 μM IR triphosphopeptide substrate, 5 min preincubation and 5 min reaction at 37° C., malachite green-ammonium molybdate phosphate detection
T1 construct: made in house
T1 sequence (P18031 1-435): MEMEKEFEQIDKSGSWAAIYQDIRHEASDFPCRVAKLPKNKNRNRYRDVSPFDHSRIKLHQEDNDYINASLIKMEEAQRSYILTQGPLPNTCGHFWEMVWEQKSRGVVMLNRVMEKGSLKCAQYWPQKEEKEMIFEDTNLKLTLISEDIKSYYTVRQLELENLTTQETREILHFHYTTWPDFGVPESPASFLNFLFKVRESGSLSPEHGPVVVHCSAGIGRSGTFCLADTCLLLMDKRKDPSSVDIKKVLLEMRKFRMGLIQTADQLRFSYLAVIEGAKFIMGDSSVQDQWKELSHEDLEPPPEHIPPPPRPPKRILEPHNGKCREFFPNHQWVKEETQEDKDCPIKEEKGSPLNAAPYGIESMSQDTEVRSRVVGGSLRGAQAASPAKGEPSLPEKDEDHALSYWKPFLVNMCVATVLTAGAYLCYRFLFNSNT

Structure (SMILES) | IC50 [1] | melting point
CCCCCCCCOc1cc(-c2cccc(C(F)(F)F)c2)c(OCC(=O)O)c(-c2cccc(C(F)(F)F)c2)c1 [Example 48, (5′-Octyloxy-3,3″-bis-trifluoromethyl-[1,1′;3′,1″]terphenyl-2′-yloxy)acetic acid] | 145 nM | 75 to 77 °C
Cc1ccc2c(c1)cc(C)n2CCCCCCCCNC(=O)c1cc(-c2cccc(Cl)c2)c(OCC(=O)O)c(-c2cccc(Cl)c2)c1 [Example 98, {3,3″-Dichloro-5′-[8-(2,5-dimethyl-indol-1-yl)-octylcarbamoyl]-[1,1′;3′1″]-terphenyl-2′-yloxy}acetic acid] | 132 nM | > 172 °C (dec.)
O=C(O)COCCOc1c(-c2cccc(C(F)(F)F)c2)cc(C(=O)NCCCCCCc2ccccc2)cc1-c1cccc(C(F)(F)F)c1 [Example 18, {2-[5′-(6-Phenyl-hexylcarbamoyl)-3,3″-bis-trifluoromethyl-[1,1′;3′,1″]terphenyl-2′-yloxy]-ethoxy}acetic acid] | 710 nM | 74.7 to 75.9 °C
Cc1cc(COCCCCCCNC(=O)c2cc(-c3ccc(F)c(Cl)c3)c(OCC(=O)O)c(-c3ccc(F)c(Cl)c3)c2)c(C)o1 [Example 26, {3,3″-Dichloro-5′-(6-(2,5-dimethyl-furan-3-ylmethoxy)-hexylcarbamoyl]-4-4″-difluoro-[1,1′;3′,1″]terphenyl-2′-yloxy}-acetic acid] | 207 nM | 90 to 91.2 °C
CCCCCCCCCCCCNC(=O)c1cc(Br)c(OCC(=O)O)c(-c2ccccc2F)c1 [Example 156, (3-Bromo-5-dodecylcarbamoyl-2′-fluoro-biphenyl-2-yloxy)acetic acid] | 278 nM | 128 to 138 °C
Cc1cc(COCCCCCCNC(=O)c2cc(-c3cccc(C(F)(F)F)c3)c(OCC(=O)O)c(-c3cccc(C(F)(F)F)c3)c2)c(C)o1 [Example 30, {5′-[6-(2,5-Dimethyl-furan-3-ylmethoxy)-hexylcarbamoyl]-3,3″-bis-trifluoromethyl-[1,1′;3′,1″]terphenyl-2′-yloxy}-acetic acid] | 220 nM | 107.9 to 108.5 °C
O=C(O)COc1c(-c2cccc(F)c2)cc(C(=O)NCCCCCCCCc2ccccc2)cc1-c1cccc(F)c1 [Example 83, [3,3″-Difluoro-5′-(8-phenyl-octylcarbamoyl)-[1,1′;3′,1″]terphenyl-2′-yloxy]acetic acid] | 536 nM | > 58 °C (dec.)
CCCCCCCCCc1cc(-c2ccccc2)c(OCC(=O)O)c(-c2ccccc2)c1 [Example 170, (5′-Nonyl-[1,1′;3′,1″]terphenyl-2′-yloxy)acetic acid] | 178 nM | 63 to 65 °C
O=C(O)COc1c(-c2cccc(C(F)(F)F)c2)cc(C(=O)NCCCCCCOCc2ccc(-c3ccccc3)cc2)cc1-c1cccc(C(F)(F)F)c1 [Example 20, {5′-[6-(Biphenyl-4-ylmethoxy)-hexylcarbamoyl]-3,3″-bis-trifluoromethyl-[1,1′;3′,1″]terphenyl-2′-yloxy}-acetic acid] | 379 nM | 133.2 to 133.9 °C
CCCCCCCCOc1cc(-c2cccc(NC(C)=O)c2)c(OCC(=O)O)c(-c2cccc(NC(C)=O)c2)c1 [Example 47, (3,3″-Bis-acetylamino-5′-octyloxy-[1,1′;3′,1″]terphenyl-2′-yloxy)acetic acid] | 300 nM | > 100 °C (dec.)
O=C(O)COc1c(-c2cccc(C(F)(F)F)c2)cc(C(=O)NCCCCCCOCc2ccc(OCc3ccccc3)cc2)cc1-c1cccc(C(F)(F)F)c1 [Example 14, {5′-[6-(4-Benzyloxy-benzyloxy)-hexylcarbamoyl]-3,3″-bis-trifluoromethyl-[1,1′;3′1″]terphenyl-2′-yloxy}-acetic acid] | 366 nM | 127 to 130 °C
O=C(O)COc1c(-c2ccccc2)cc(C(c2ccccc2)(c2ccccc2)c2ccccc2)cc1-c1ccccc1 [Example 174, (5′-Trityl-[1,1′;3′,1″]terphenyl-2′-yloxy)acetic acid] | 633 nM | 211 to 214 °C
